Drawing on PubChem BioAssay (NCI), this text covers GI50 and TGI for twelve molecules.

Some test systems named below: NCI-H23 lung; SW-620 colon; SN12C renal; NCI-H522 lung; MDA-MB-231 breast; SF-295 CNS; SNB-19 CNS; NCI-H460 lung; SK-OV-3 ovarian; SR leukemia.
What all share (assay): DTP human tumour cell line panel, 48 h

Where “and” joins values, the source holds several entries; their conditions need not be identical. Identical values can stand only once.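 Exposure lasted 48 hours, with cells grown in 96-well plates and compounds tested at five concentrations. GI50: concentration for 50% inhibition of growth. Definition used: TGI = concentration required for complete inhibition of growth.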 Bounds are passed on as bounds.

With `C/C=C(\C)C(=O)N[C@H]1[C@@H](OC(C)=O)C[C@]2(C)C3CC[C@@]4(C)C(CC[C@@H]4C(C)N(C)C)C3CCC2[C@H]1O` (stereo partly drawn), the GI50 in the test on NCI-H23 lung is 11.7 µM; in the test with SW-620 colon it was 2.63 µM; in the test on SN12C renal it was 5.55 µM; in the test on NCI-H522 lung, 4.99 µM; with MDA-MB-231 breast, 3.23 µM; in the test with SF-295 CNS, 3.44 µM. The results for the GI50 with SNB-19 CNS, with NCI-H460 lung and in the test with SK-OV-3 ovarian were 13.6 µM, 2180 nM and 7.95 µM, respectively. Besides, the concentration for total growth inhibition (TGI) worked out at 28.2 µM in the test with NCI-H23 lung; 9.44 µM in the test with SW-620 colon; 19.6 µM in the test on SN12C renal; 15.3 µM with NCI-H522 lung; 10.7 µM with MDA-MB-231 breast; 14.9 µM in the test with SF-295 CNS. Further, the values for the TGI in the test with SNB-19 CNS, in the test on NCI-H460 lung and with SK-OV-3 ovarian were 28.9 µM, 5.8 µM and 22.5 µM, respectively.
With `C=C1C(=O)O[C@@H]2C1C[C@@H](O)/C(C)=C/C/C=C(\C)CCC[C@H](C)[C@H]2OC(C)=O` (stereo partly drawn), the GI50 is 27.1 µM with NCI-H23 lung; 26 µM in the test on SW-620 colon; 27.2 µM in the test on SN12C renal; 22.7 µM with NCI-H522 lung; 24.3 µM in the test on MDA-MB-231 breast; over 100 µM in the test on SF-295 CNS. The results for the GI50 in the test on SNB-19 CNS, in the test on NCI-H460 lung and in the test with SK-OV-3 ovarian were 61 µM, over 100000 nM and 69.3 µM, respectively. Moreover, the TGI in the test with NCI-H23 lung was 86.2 µM; with SW-620 colon, 58.9 µM; in the test with SN12C renal it was 66.3 µM; in the test on NCI-H522 lung, 79.9 µM; in the test on MDA-MB-231 breast, 49.6 µM; in the test on SF-295 CNS, over 100 µM. Besides, the total growth inhibition concentration (TGI) with SNB-19 CNS, in the test with NCI-H460 lung and in the test on SK-OV-3 ovarian was over 100 µM throughout.
In the case of `Clc1ccc(-n2nnc(C3=NCCCN3)c2-c2ccccc2)cc1`, the TGI in the test with NCI-H23 lung, in the test with SW-620 colon, with SR leukemia, in the test with SN12C renal, with NCI-H522 lung and in the test on SF-295 CNS was over 100 µM in each case. Further, the TGI in the test with SNB-19 CNS, with NCI-H460 lung and in the test with SK-OV-3 ovarian was over 100 µM throughout.
As for `C1CNCCNCCNCCN1`, the total growth inhibition concentration (TGI) with NCI-H23 lung, in the test with SW-620 colon, in the test with SR leukemia, in the test on SN12C renal, in the test on NCI-H522 lung and with SF-295 CNS was over 100 µM each time. The concentration for total growth inhibition (TGI) in the test with SNB-19 CNS, in the test with NCI-H460 lung and in the test with SK-OV-3 ovarian was over 100 µM throughout.
For `COc1ccc(C(=O)C(c2ccc(OC)cc2)C2(O)C(=O)Nc3c(C)cc(Cl)cc32)cc1` (stereo not drawn), the concentration for total growth inhibition (TGI) with NCI-H23 lung is over 100 µM; in the test with SW-620 colon it was over 100 µM; with SR leukemia, 48.2 µM; with SN12C renal, over 100 µM; in the test with NCI-H522 lung, over 100 µM; with SF-295 CNS it was over 100 µM. Further, the TGI with SNB-19 CNS, with NCI-H460 lung and in the test with SK-OV-3 ovarian was over 100 µM each time.
With `COc1ccccc1C1=C2C(=O)N(C)C(c3ccccc3OC)=C2C(=O)N1C`, the total growth inhibition concentration (TGI) with NCI-H23 lung, in the test on SW-620 colon, with SN12C renal, in the test with NCI-H522 lung, with MDA-MB-231 breast and in the test on SF-295 CNS was over 100 µM each time. Further, the values for the TGI in the test with SNB-19 CNS, in the test with NCI-H460 lung and in the test on SK-OV-3 ovarian were 75.4 µM, over 100 µM and over 100 µM, respectively.
In the case of `CN(C)NC1=NS(=O)(=O)c2cc3c(cc2S1)N(N(C)C)C(=O)c1cc2c(cc1N(N(C)C)C3=O)SC(NN(C)C)=NS2(=O)=O`, the TGI with NCI-H23 lung, in the test with SW-620 colon, in the test with SR leukemia, in the test on SN12C renal, in the test with NCI-H522 lung and in the test with SF-295 CNS was over 10 µM each time. In addition, the TGI in the test on SNB-19 CNS, with NCI-H460 lung and in the test on SK-OV-3 ovarian was over 10 µM throughout.
On to `O=C1/C(=C/c2ccc(O)c([N+](=O)[O-])c2)CCC/C1=C\c1ccc(O)c([N+](=O)[O-])c1`, for which the GI50 with NCI-H23 lung is 8.14 µM; in the test with SW-620 colon, 30.1 µM; with SN12C renal, 46.2 µM; with NCI-H522 lung it was 1.49 µM; with MDA-MB-231 breast, 16.4 µM; with SNB-19 CNS, 17.1 µM. The GI50 in the test with SK-OV-3 ovarian was 22.2 µM. The TGI with NCI-H23 lung is 32.6 µM and 25.2 µM; with SW-620 colon, 50 µM and 99.2 µM; in the test on SN12C renal, 26.2 µM and > 100 µM; in the test with NCI-H522 lung it was 22.6 µM and 3.08 µM; with MDA-MB-231 breast, 50 µM and 39.3 µM; in the test on SF-295 CNS, 50 µM and > 100 µM. Moreover, the TGI in the test with SNB-19 CNS is 28.7 µM and 35.2 µM; in the test on NCI-H460 lung, 31.6 µM; in the test on SK-OV-3 ovarian, 50 µM and > 100 µM.
Consider `CC(C)=CC(=O)Oc1ccc([N+](=O)[O-])cc1`, for which the concentration for total growth inhibition (TGI) in the test with NCI-H23 lung is over 100 µM; with SW-620 colon it was over 100 µM; with SR leukemia it was over 100 µM; with SN12C renal it was over 100 µM; with NCI-H522 lung, 14.8 µM; with SF-295 CNS, over 100 µM. For the same molecule, the TGI in the test on SNB-19 CNS, with NCI-H460 lung and with SK-OV-3 ovarian was over 100 µM each time.
For the molecule `N#CCc1ccc(C(C#N)/C(CCCC(=O)Nc2cccc([N+](=O)[O-])c2)=N\NC(=O)NN)cc1` (stereo not drawn), the TGI with NCI-H23 lung, in the test on SW-620 colon, with SR leukemia, with SN12C renal, in the test on NCI-H522 lung and in the test on SF-295 CNS was over 100 µM in each case. Besides, the total growth inhibition concentration (TGI) with SNB-19 CNS, in the test on NCI-H460 lung and in the test on SK-OV-3 ovarian was over 100 µM throughout.
For the molecule `O=c1[nH]c2nccnc2c2c([N+](=O)[O-])cccc12`, the total growth inhibition concentration (TGI) in the test on NCI-H23 lung, in the test with SW-620 colon, in the test with SR leukemia, with SN12C renal, in the test on NCI-H522 lung and in the test on SF-295 CNS was over 100 µM each time. The TGI in the test with SNB-19 CNS, in the test with NCI-H460 lung and in the test with SK-OV-3 ovarian was over 100 µM each time.
For the molecule `CC(=O)OCSc1ncnc2c1ncn2CN1CCOCC1`, the concentration for total growth inhibition (TGI) in the test on NCI-H23 lung is 53.2 µM; in the test on SW-620 colon it was over 100 µM; in the test with SR leukemia, over 100 µM; in the test on SN12C renal, over 100 µM; with NCI-H522 lung it was over 100 µM; with SF-295 CNS, over 100 µM. For the same molecule, the TGI in the test on SNB-19 CNS, with NCI-H460 lung and with SK-OV-3 ovarian was over 100 µM in each case.

Broadly, the GI50 is the concentration that inhibits growth by half. Usually TGI stands for the concentration giving total growth inhibition.
